{
  "source": "ChEMBL document CHEMBL4330132",
  "about": "“5-Keto-3-cyano-2,4-diaminothiophenes as selective maternal embryonic leucine zipper kinase inhibitors” (Bioorg Med Chem Lett, 2019)",
  "key": {"[1]": {"target": "Tyrosine-protein kinase Srms (Homo sapiens) (UniProt Q9H3Y6)", "test": "Binding affinity to wild-type human partial length SRMS (L208 to P488 residues) expressed in mammalian expression system assessed as residual binding level at 1 uM by Kinomescan method relative to control"}, "[2]": {"target": "Protein kinase C theta type (Homo sapiens) (UniProt Q04759)", "test": "Binding affinity to wild-type human partial length PRKCQ (L350 to S706 residues) expressed in bacterial expression system assessed as residual binding level at 1 uM by Kinomescan method relative to control"}, "[3]": {"target": "Mitogen-activated protein kinase kinase kinase kinase 2 (Homo sapiens) (UniProt Q12851)", "test": "Binding affinity to wild-type human partial length MAP4K2 (M1 to G318 residues) expressed in mammalian expression system assessed as residual binding level at 1 uM by Kinomescan method relative to control"}, "[4]": {"target": "Serine/threonine-protein kinase 16 (Homo sapiens) (UniProt O75716)", "test": "Binding affinity to wild-type human partial length STK16 (G11 to I305 residues) expressed in bacterial expression system assessed as residual binding level at 1 uM by Kinomescan method relative to control"}, "[5]": {"target": "Casein kinase I isoform epsilon (Homo sapiens) (UniProt P49674)", "test": "Binding affinity to wild-type human full length CSNK1E (M1 to K416 residues) expressed in bacterial expression system assessed as residual binding level at 1 uM by Kinomescan method relative to control"}, "[6]": {"target": "Serine/threonine-protein kinase STK11 (Homo sapiens) (UniProt Q15831)", "test": "Binding affinity to wild-type human full length LKB1 (M1 to Q433 residues) expressed in bacterial expression system assessed as residual binding level at 1 uM by Kinomescan method relative to control"}, "[7]": {"target": "MAP kinase-activated protein kinase 2 (Homo sapiens) (UniProt P49137)", "test": "Binding affinity to wild-type human partial length MAPKAPK2 (V48 to D345 residues) expressed in bacterial expression system assessed as residual binding level at 1 uM by Kinomescan method relative to control"}, "[8]": {"target": "Hormonally up-regulated neu tumor-associated kinase (Homo sapiens) (UniProt P57058)", "test": "Binding affinity to wild-type human partial length HUNK (A31 to K354 residues) expressed in bacterial expression system assessed as residual binding level at 1 uM by Kinomescan method relative to control"}, "[9]": {"target": "Serine/threonine-protein kinase MRCK gamma (Homo sapiens) (UniProt Q6DT37)", "test": "Binding affinity to wild-type human partial length DMPK2 (S46 to S408 residues) expressed in bacterial expression system assessed as residual binding level at 1 uM by Kinomescan method relative to control"}, "[10]": {"target": "Phosphatidylinositol 4-phosphate 5-kinase type-1 gamma (Homo sapiens) (UniProt O60331)", "test": "Binding affinity to wild-type human partial length PIP5K1C (M1 to T668 residues) expressed in mammalian expression system assessed as residual binding level at 1 uM by Kinomescan method relative to control"}, "[11]": {"target": "Mitogen-activated protein kinase kinase kinase kinase 3 (Homo sapiens) (UniProt Q8IVH8)", "test": "Binding affinity to wild-type human partial length MAP4K3 (M1 to D301 residues) expressed in bacterial expression system assessed as residual binding level at 1 uM by Kinomescan method relative to control"}, "[12]": {"target": "Serine/threonine-protein kinase pim-1 (Homo sapiens) (UniProt P11309)", "test": "Binding affinity to wild-type human partial length PIM1 (A15 to K313 residues) expressed in bacterial expression system assessed as residual binding level at 1 uM by Kinomescan method relative to control"}, "[13]": {"test_system": "Phosphatidylinositol 4,5-bisphosphate 3-kinase catalytic subunit alpha isoform (Homo sapiens), P42336 [E542K]", "test": "Binding affinity to human partial length PIK3CA E542K mutant (R108 to N1068 residues) expressed in mammalian expression system assessed as residual binding level at 1 uM by Kinomescan method relative to control"}, "[14]": {"target": "STE20-like serine/threonine-protein kinase (Homo sapiens) (UniProt Q9H2G2)", "test": "Binding affinity to wild-type human partial length SLK (S14 to A307 residues) expressed in bacterial expression system assessed as residual binding level at 1 uM by Kinomescan method relative to control"}, "[15]": {"target": "Serine/threonine-protein kinase TAO3 (Homo sapiens) (UniProt Q9H2K8)", "test": "Binding affinity to wild-type human partial length TAOK3 (M1 to T316 residues) expressed in mammalian expression system assessed as residual binding level at 1 uM by Kinomescan method relative to control"}, "[16]": {"target": "Tyrosine-protein kinase Lck (Homo sapiens) (UniProt P06239)", "test": "Binding affinity to wild-type human partial length LCK (R207 to P509 residues) expressed in bacterial expression system assessed as residual binding level at 1 uM by Kinomescan method relative to control"}, "[17]": {"target": "Serine/threonine-protein kinase ICK (Homo sapiens) (UniProt Q9UPZ9)", "test": "Binding affinity to wild-type human partial length ICK (M1 to P314 residues) expressed in mammalian expression system assessed as residual binding level at 1 uM by Kinomescan method relative to control"}, "[18]": {"target": "Insulin-like growth factor 1 receptor (Homo sapiens) (UniProt P08069)", "test": "Binding affinity to wild-type human partial length IGF1R (L972 to D1294 residues) expressed in bacterial expression system assessed as residual binding level at 1 uM by Kinomescan method relative to control"}, "[19]": {"target": "Dual specificity mitogen-activated protein kinase kinase 5 (Homo sapiens) (UniProt Q13163)", "test": "Binding affinity to wild-type human partial length MEK5 (L98 to P448 residues) expressed in mammalian expression system assessed as residual binding level at 1 uM by Kinomescan method relative to control"}, "[20]": {"target": "Cyclin-dependent kinase 18 (Homo sapiens) (UniProt Q07002)", "test": "Binding affinity to wild-type human full length PCTK3 (M3 to F474 residues) expressed in bacterial expression system assessed as residual binding level at 1 uM by Kinomescan method relative to control"}, "[21]": {"target": "Mitogen-activated protein kinase 1 (Homo sapiens) (UniProt P28482)", "test": "Binding affinity to wild-type human full length ERK2 (M1 to S360 residues) expressed in bacterial expression system assessed as residual binding level at 1 uM by Kinomescan method relative to control"}, "[22]": {"test_system": "Epidermal growth factor receptor (Homo sapiens), P00533 [G719S]", "test": "Binding affinity to human partial length EGFR G719S mutant (R669 to V1011 residues) expressed in bacterial expression system assessed as residual binding level at 1 uM by Kinomescan method relative to control"}, "[23]": {"target": "AP2-associated protein kinase 1 (Homo sapiens) (UniProt Q2M2I8)", "test": "Binding affinity to human wild-type AAK1 (G25 to L333 residues) expressed in bacterial expression system assessed as residual binding level at 1 uM by Kinomescan method relative to control"}, "[24]": {"target": "Dual specificity tyrosine-phosphorylation-regulated kinase 2 (Homo sapiens) (UniProt Q92630)", "test": "Binding affinity to wild-type human full length DYRK2 (M1 to S528 residues) expressed in mammalian expression system assessed as residual binding level at 1 uM by Kinomescan method relative to control"}},
  "data": [
    {"smiles": "CC(C)Nc1sc(C(=O)c2ccc(Cl)s2)c(N)c1C#N", "values": [
      {"measurement": "Activity", "setting": "[1]", "value": 91, "unit": "%"},
      {"measurement": "Activity", "setting": "[2]", "value": 57, "unit": "%"},
      {"measurement": "Activity", "setting": "[3]", "value": 100, "unit": "%"},
      {"measurement": "Activity", "setting": "[4]", "value": 85, "unit": "%"},
      {"measurement": "Activity", "setting": "[5]", "value": 61, "unit": "%"},
      {"measurement": "Activity", "setting": "[6]", "value": 89, "unit": "%"},
      {"measurement": "Activity", "setting": "[7]", "value": 83, "unit": "%"},
      {"measurement": "Activity", "setting": "[8]", "value": 71, "unit": "%"},
      {"measurement": "Activity", "setting": "[9]", "value": 100, "unit": "%"},
      {"measurement": "Activity", "setting": "[10]", "value": 86, "unit": "%"},
      {"measurement": "Activity", "setting": "[11]", "value": 59, "unit": "%"},
      {"measurement": "Activity", "setting": "[12]", "value": 92, "unit": "%"},
      {"measurement": "Activity", "setting": "[13]", "value": 77, "unit": "%"},
      {"measurement": "Activity", "setting": "[14]", "value": 96, "unit": "%"},
      {"measurement": "Activity", "setting": "[15]", "value": 100, "unit": "%"},
      {"measurement": "Activity", "setting": "[16]", "value": 93, "unit": "%"},
      {"measurement": "Activity", "setting": "[17]", "value": 100, "unit": "%"},
      {"measurement": "Activity", "setting": "[18]", "value": 90, "unit": "%"},
      {"measurement": "Activity", "setting": "[19]", "value": 100, "unit": "%"},
      {"measurement": "Activity", "setting": "[20]", "value": 100, "unit": "%"},
      {"measurement": "Activity", "setting": "[21]", "value": 100, "unit": "%"},
      {"measurement": "Activity", "setting": "[22]", "value": 96, "unit": "%"},
      {"measurement": "Activity", "setting": "[23]", "value": 16, "unit": "%"},
      {"measurement": "Activity", "setting": "[24]", "value": 100, "unit": "%"}
    ]}
  ]
}
